In this experiment the target is T1, HEK cells stably transfected with tetracycline inducible hNR1 and hNR2A (Homo sapiens, UniProt Q05586+Q12879).
T1 construct: expressed in transfected cells; host or cells: HEK cells, stably transfected, tetracycline/doxycycline inducible
Kind of experiment: Assay 1: Cell-Based Assay, cytosolic calcium response to positive allosteric modulators (with 30 μM glycine and 300 nM L-glutamate, EC30). As to conditions: Table 2; for EC50: cytosolic calcium response, with 30 μM glycine and 300 nM L-glutamate (EC30), — = no plateau was reached; for Max %: responses scaled relative to 100 μM L-glutamate maximal response (100%) and 0 μM L-glutamate (0%). An outline of the steps:
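Cells induced 24 h with 7.5 μg mL^−1 doxycycline plus 500 μM (+)-ketamine, loaded 60 min at 37 °C with calcium dye in Mg-free HBSS (1.8 mM Ca, probenecid, 10 μM (+)-ketamine, pH 7.15). Peak RFU over 5 min after compound addition, scaled to 100 μM L-glutamate (100%) and 0 μM (0%); four-parameter Hill fit for EC50, max % if no plateau.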

T1 sequence (Q12879 23-1464, other chains not shown): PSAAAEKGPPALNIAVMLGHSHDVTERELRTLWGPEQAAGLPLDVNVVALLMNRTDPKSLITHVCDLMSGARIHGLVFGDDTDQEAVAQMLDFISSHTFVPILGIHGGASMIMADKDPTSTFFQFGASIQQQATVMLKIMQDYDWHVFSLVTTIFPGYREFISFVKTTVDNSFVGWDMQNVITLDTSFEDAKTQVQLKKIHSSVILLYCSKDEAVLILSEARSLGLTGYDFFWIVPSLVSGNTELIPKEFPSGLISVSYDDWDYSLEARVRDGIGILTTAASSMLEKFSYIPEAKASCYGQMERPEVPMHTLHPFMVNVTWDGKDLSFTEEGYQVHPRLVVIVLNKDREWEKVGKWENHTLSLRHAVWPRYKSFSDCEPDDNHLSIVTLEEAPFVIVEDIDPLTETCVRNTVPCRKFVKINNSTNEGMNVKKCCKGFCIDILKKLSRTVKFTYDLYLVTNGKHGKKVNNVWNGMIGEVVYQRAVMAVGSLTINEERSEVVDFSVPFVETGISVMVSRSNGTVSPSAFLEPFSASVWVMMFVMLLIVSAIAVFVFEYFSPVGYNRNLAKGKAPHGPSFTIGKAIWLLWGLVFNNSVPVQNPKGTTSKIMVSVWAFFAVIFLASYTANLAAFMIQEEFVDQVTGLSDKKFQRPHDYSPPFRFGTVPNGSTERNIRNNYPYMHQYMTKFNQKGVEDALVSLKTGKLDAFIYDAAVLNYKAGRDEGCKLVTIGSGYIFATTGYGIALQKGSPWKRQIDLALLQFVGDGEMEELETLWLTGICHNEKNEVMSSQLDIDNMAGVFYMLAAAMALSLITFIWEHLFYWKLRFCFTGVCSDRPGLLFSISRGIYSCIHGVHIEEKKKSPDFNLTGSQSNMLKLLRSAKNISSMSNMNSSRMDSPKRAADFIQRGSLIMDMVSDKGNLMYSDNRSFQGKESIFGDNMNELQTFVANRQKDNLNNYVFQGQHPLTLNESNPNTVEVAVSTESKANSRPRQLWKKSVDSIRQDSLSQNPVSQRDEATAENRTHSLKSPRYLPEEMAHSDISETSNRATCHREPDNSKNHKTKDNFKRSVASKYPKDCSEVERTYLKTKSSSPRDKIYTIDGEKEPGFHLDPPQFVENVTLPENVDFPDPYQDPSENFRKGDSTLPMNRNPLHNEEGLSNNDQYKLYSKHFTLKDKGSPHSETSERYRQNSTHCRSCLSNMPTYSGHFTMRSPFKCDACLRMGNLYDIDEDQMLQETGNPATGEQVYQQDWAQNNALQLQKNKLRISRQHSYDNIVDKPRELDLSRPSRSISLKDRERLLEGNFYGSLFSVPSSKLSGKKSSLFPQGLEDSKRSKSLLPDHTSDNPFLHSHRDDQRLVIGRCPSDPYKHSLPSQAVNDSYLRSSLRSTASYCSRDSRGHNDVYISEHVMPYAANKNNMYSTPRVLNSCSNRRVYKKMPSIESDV

As to `CCN(Cc1cc(=O)n2c(-c3cccs3)c(C)sc2n1)c1ccc(F)cc1` [Example 5.9, 7-((ethyl(4-fluorophenyl)amino)methyl)-2-methyl-3-(thiophen-2-yl)-5H-thiazolo[3,2-a]pyrimidin-5-one], the 50% effective concentration (EC50) is 1300 nM and the Max % is reported as 143%. Turning to `CCN(Cc1cc(=O)n2c(-c3cncnc3)c(C)sc2n1)c1cccc(C#N)c1` [Example 5.10, 3-(ethyl((2-methyl-5-oxo-3-(pyrimidin-5-yl)-5H-thiazolo [3,2-a]pyrimidin-7-yl)methyl)amino)benzonitrile], the concentration giving a half-maximal response (EC50) turned out to be 18000 nM and the Max % was found to be 133%. In the case of `CCN(Cc1cc(=O)n2c(-c3cccnc3N)c(C)sc2n1)c1ccc(F)cc1` [Example 5.11, 3-(2-aminopyridin-3-yl)-7-((ethyl(4-fluorophenyl)amino)methyl)-2-methyl-5H-thiazolo[3,2-a]pyrimidin-5-one], the EC50 was 2900 nM and the Max % is given as 118%. For `CCN(Cc1cc(=O)n2c(-c3cncnc3)c(C)sc2n1)c1ccccn1` [Example 5.12, 7-((ethyl(pyridine-2-yl)amino)methyl)-2-methyl-3-(pyrimidin-5-yl)-5H-thiazolo[3,2-a]pyrimidin-5-one], the Max % was found to be 106%. On to `Cc1sc2nc(CNc3ccc(F)cc3)cc(=O)n2c1-c1cncnc1` [Example 5.13, 7-((4-fluorophenylamino)methyl)-2-methyl-3-(pyrimidin-5-yl)-5H-thiazolo[3,2-a]pyrimidin-5-one], for which the Max % stood at 87.9%. Regarding `CCCCc1c(C)sc2nc(CN(CC)c3ccc(F)cc3)cc(=O)n12` [Example 5.14, 3-butyl-7-((ethyl(4-fluorophenyl)amino)methyl)-2-methyl-5H-thiazolo[3,2-a]pyrimidin-5-one], the EC50 came to 7500 nM and the Max % was 111%. For `CCN(Cc1cc(=O)n2c(-c3cncnc3)c(C3CC3)sc2n1)c1ccc(F)cc1` [Example 5.15, 2-cyclopropyl-7-[(N-ethyl-4-fluoro-anilino)methyl]-3-pyrimidin-5-yl-thiazolo[3,2-a]pyrimidin-5-one], the EC50 was 7000 nM and the Max % came to 144%.

For the compound `CCc1sc2nc(CN(CC)c3ccc(F)cc3)cc(=O)n2c1-c1cncnc1` [Example 5.16, 2-ethyl-7-((ethyl(4-fluorophenyl)amino)methyl)-3-(pyrimidin-5-yl)-5H-thiazolo[3,2-a]pyrimidin-5-one], the EC50 is 2500 nM and the Max % was found to be 157%. For `CCN(Cc1cc(=O)n2c(-c3cscn3)c(C)sc2n1)c1ccc(F)cc1` [Example 5.20, 7-[(N-ethyl-4-fluoro-anilino)methyl]-2-methyl-3-thiazol-4-yl-thiazolo[3,2-a]pyrimidin-5-one] the same measures were 815 nM and 157%. Regarding `CCN(Cc1cc(=O)n2c(-c3cccnc3)c(C)sc2n1)c1ccc(F)cc1` [Example 5.21, 7-[(N-ethyl-4-fluoro-anilino)methyl]-2-methyl-3-(3-pyridyl)thiazolo[3,2-a]pyrimidin-5-one], the concentration giving a half-maximal response (EC50) worked out at 584 nM and the Max % was determined as 141%. Taken in the same sequence, the figures for `CCN(Cc1cc(=O)n2c(-c3ccccc3)c(C)sc2n1)c1ccc(F)cc1` [Example 5.22, 7-[(N-ethyl-4-fluoro-anilino)methyl]-2-methyl-3-phenyl-thiazolo[3,2-a]pyrimidin-5-one] were 1600 nM and 142%. Consider `CCN(Cc1cc(=O)n2c(C)c(C)sc2n1)c1ccc(F)cc1` [Example 5.23, 7-[(N-ethyl-4-fluoro-anilino)methyl]-2,3-dimethyl-thiazolo[3,2-a]pyrimidin-5-one], for which the EC50 came to 2600 nM and the Max % is listed as 135%. Taken in the same sequence, the figures for `CCN(Cc1cc(=O)n2c(-c3cncc(F)c3)c(C)sc2n1)c1ccc(F)cc1` [Example 5.24, 7-[(N-ethyl-4-fluoro-anilino)methyl]-3-(5-fluoro-3-pyridyl)-2-methyl-thiazolo[3,2-a]pyrimidin-5-one] were 731 nM and 142%. `CCN(Cc1cc(=O)n2c(-c3cccnc3F)c(C)sc2n1)c1ccc(F)cc1` [Example 5.25, 7-[(N-ethyl-4-fluoro-anilino)methyl]-3-(2-fluoro-3-pyridyl)-2-methyl-thiazolo[3,2-a]pyrimidin-5-one]: the EC50 came to 700 nM and the Max % turned out to be 141%.

For `CCN(Cc1cc(=O)n2c(C3CC3)c(C)sc2n1)c1ccc(F)cc1` [Example 5.26, 3-cyclopropyl-7-[(N-ethyl-fluoro-anilino)methyl]-2-methyl-thiazolo[3,2-a]pyrimidin-5-one], the EC50 is 563 nM and the Max % is recorded as 149%. Taken in the same sequence, the figures for `CCN(Cc1cc(=O)n2c(-c3cnccn3)c(C)sc2n1)c1ccc(F)cc1` [Example 5.27, 7-[(N-ethyl-4-fluoro-anilino)methyl]-2-methyl-3-pyrazin-2-yl-thiazolo[3,2-a]pyrimidin-5-one] were 1100 nM and 139%. With `C=C(C)c1c(C)sc2nc(CN(CC)c3ccc(F)cc3)cc(=O)n12` [Example 5.29, 7-[(N-ethyl-4-fluoro-anilino)methyl]-3-isopropenyl-2-methyl-thiazolo[3,2-a]pyrimidin-5-one], the EC50 was 445 nM and the Max % worked out at 147%. In the case of `CCN(Cc1cc(=O)n2c(-c3ccnnc3)c(C)sc2n1)c1ccc(F)cc1` [Example 5.30, 7-[(N-ethyl-4-fluoro-anilino)methyl]-2-methyl-3-pyridazin-4-yl-thiazolo[3,2-a]pyrimidin-5-one], the EC50 is 4300 nM and the Max % is on record as 132%. In the case of `CCN(Cc1cc(=O)n2c(-c3cncc(Cl)c3)c(C)sc2n1)c1ccc(F)cc1` [Example 5.31, 3-(5-chloro-3-pyridyl)-7-[(N-ethyl-4-fluoro-anilino)methyl]-2-methyl-thiazolo[3,2-a]pyrimidin-5-one], the EC50 is 2700 nM and the Max % was 132%.

Consider `CCN(Cc1cc(=O)n2c(-c3ccncc3)c(C)sc2n1)c1ccc(F)cc1` [Example 5.32, 7-[(N-ethyl-4-fluoro-anilino)methyl]-2-methyl-3-(4-pyridyl)thiazolo[3,2-a]pyrimidin-5-one], for which the half-maximal effective concentration (EC50) turned out to be 4300 nM and the Max % is 123%. For `CCN(Cc1cc(=O)n2c(-c3cnn(C)c3)c(C)sc2n1)c1ccc(F)cc1` [Example 5.33, 7-[(N-ethyl-4-fluoro-anilino)methyl]-2-methyl-3-(1-methylpyrazol-4-yl)thiazolo[3,2-a]pyrimidin-5-one] the same measures were 4200 nM and 120%.

For the compound `CCN(Cc1cc(=O)n2c(-c3cn[nH]c3)c(C)sc2n1)c1ccc(F)cc1` [Example 5.34, 7-[(N-ethyl-4-fluoro-anilino)methyl]-2-methyl-3-(1H-pyrazol-4-yl)thiazolo[3,2-a]pyrimidin-5-one], the concentration giving a half-maximal response (EC50) is 2800 nM and the Max % stood at 118%. Turning to `CCN(Cc1cc(=O)n2c(-c3cncc(C#N)c3)c(C)sc2n1)c1ccc(F)cc1` [Example 5.35, 5-[7-[(N-ethyl-4-fluoro-anilino)methyl]-2-methyl-5-oxo-thiazolo[3,2-a]pyrimidin-3-yl]pyridine-3-carbonitrile], the EC50 amounted to 2700 nM and the Max % is recorded as 136%.

With `CCN(Cc1cc(=O)n2c(-c3cncc(C(F)(F)F)c3)c(C)sc2n1)c1ccc(F)cc1` [Example 5.36, 7-[(N-ethyl-4-fluoro-anilino)methyl]-2-methyl-3-[5-(trifluoromethyl)-3-pyridyl]thiazolo[3,2-a]pyrimidin-5-one], the Max % is reported as 61.3%. Regarding `CCN(Cc1cc(=O)n2c(-c3ncco3)c(C)sc2n1)c1ccc(F)cc1` [Example 5.37, 7-[(N-ethyl-4-fluoro-anilino)methyl]-2-methyl-3-oxazol-2-yl-thiazolo[3,2-a]pyrimidin-5-one], the EC50 was found to be 515 nM and the Max % was found to be 152%. Taken in the same sequence, the figures for `CCN(Cc1cc(=O)n2c(C(F)(F)F)c(C)sc2n1)c1ccc(F)cc1` [Example 5.38, 7-((ethyl(4-fluorophenyl)amino)methyl)-2-methyl-3-(trifluoromethyl)-5H-thiazolo[3,2-a]pyrimidin-5-one] were 1100 nM and 147%. Taken in the same sequence, the figures for `CCc1c(C)sc2nc(CN(CC)c3ccc(F)cc3)cc(=O)n12` [Example 5.40, 3-ethyl-7-((ethyl(4-fluorophenyl)amino)methyl)-2-methyl-5H-thiazolo[3,2-a]pyrimidin-5-one] were 1900 nM and 149%.

Consider `CCCc1c(C)sc2nc(CN(CC)c3ccc(F)cc3)cc(=O)n12` [Example 5.41, 7-((ethyl(4-fluorophenyl)amino)methyl)-2-methyl-3-propyl-5H-thiazolo[3,2-a]pyrimidin-5-one], for which the EC50 was determined as 2000 nM and the Max % is listed as 125%. Taken in the same sequence, the figures for `CCN(Cc1cc(=O)n2c(-c3ccoc3)c(C)sc2n1)c1ccc(F)cc1` [Example 5.44, 7-((ethyl(4-fluorophenyl)amino)methyl)-3-(furan-3-yl)-2-methyl-5H-thiazolo[3,2-a]pyrimidin-5-one] were 1100 nM and 158%. For `CCN(Cc1cc(=O)n2c(-c3ccco3)c(C)sc2n1)c1ccc(F)cc1` [Example 5.45, 7-((ethyl(4-fluorophenyl)amino)methyl)-3-(furan-2-yl)-2-methyl-5H-thiazolo[3,2-a]pyrimidin-5-one] the same measures were 214 nM and 139%.

The record behind these values is US9988400B2 (Genentech, Inc., priority 2013, dated 2018).
